Test results: patent US7026328B2, “Heterocyclic compounds which inhibit leukocyte adhesion mediated by α4 integrins” (Elan Pharmaceuticals, Inc., priority 2002, dated 2006)

Key:
[1] = Cassette Dosing and Serum Analysis for Determination of Bioavailability; assay type: in vivo, rat; settings: average AUC 0→12 h, male Sprague Dawley rats, single oral cassette dose (6 compounds, total dose 10 mg/kg), plasma
Method: The cassette included 5 test articles and a standard compound, for a total dose of 10 mg/kg. Each compound/test article was converted to the sodium salt with equimolar 1 N NaOH and dissolved in water at 2 mg/mL. The cassette was prepared by mixing equal volumes of each of the six solutions. The cassette dosing solution was mixed well and then the pH was adjusted to 7.5–9. The dosing solution was prepared the day before the study and stirred overnight at room temperature.
Male Sprague Dawley (SD) rats from Charles River Laboratories, 6–8 weeks old were used in this screen. Rats were quarantined for at least one day and had continuous access to food and water. On the night before the administration of the cassette, the rats were fasted for approximately 16 h.
Four SD rats were assigned in each cassette. A single dose of the dosing solution was administered orally to each rat. The dosing volume (5 mL/kg) and time were recorded and rats were fed 2 h after dosing.
Blood samples were collected via cardiac puncture at the following time points: 4 h, 8 h and 12 h. Immediately prior to blood collection, rats were anesthetized with CO2 gas within 10–20 seconds. After the 12-h samples were collected, the rats were euthanized via CO2 asphyxiation followed by cervical dislocation.
Blood samples were kept in heparinized microtainer tubes under sub-ambient temperature (4° C.) before they were processed. Blood samples were centrifuged (10000 rpm for 5 minutes) and plasma samples were removed and stored in a −20° C. freezer until analyzed for drug levels. Drug levels in the plasma were analyzed using the following protocol for direct plasma precipitation.
The in vivo plasma samples were prepared in a 1.5 mL 96-well plate, by adding, in order, 100 μL of the test plasma, 150 μL of methanol, followed by vortexing for 10–20 seconds. 150 μL of 0.05 ng/μL of an Internal Standard in acetonitrile were added and vortexed for 30 seconds.
The standard curve samples were prepared in a 1.5 mL 96-well plate, by adding, in order, 100 μL of control mouse plasma, followed by 150 μL of methanol and vortexing for 10–20 seconds. 150 μL of 0.05 ng/μL of an Internal Standard in acetonitrile were added and vortexed for 30 seconds. The samples were spiked with 0–200 ng (10 concentrations) of the compound of interest in 50% methanol to obtain a standard curve range of 0.5 ng/mL–2,000 ng/mL. Again, the sample was vortexed for 30 seconds.
The samples were then spun for 20–30 minutes at 3000 rpm in an Eppendorf microfuge before 80–90% of supernatant was transferred into a clean 96-well plate. The organic solvent was then evaporated until the samples were dry (under N2 at 40° C./30–60 min (Zymark Turbovap)).
The residue was then dissolved in […] mobile phase (50% CH3OH/0.1% TFA). LC/MS/MS was then run using a PE-Sciex API-3000 triple quadurpole mass spectrometer (SN0749707), Perkin-Elmer, Series200auto-sampler, and shimadzu 10A pump. Acquisition was done with PE-Sciex Analyst (v1.1) and data analysis and quantification were accomplished using PE-Sciex Analyst (v1.1). A 5–50 μL sample volume was injected onto a reverse phase ThermoHypersil DASH-18 column (Keystone 2.0×20 mm, 5 μm, PN: 8823025-701) using a mobile phase of 25% CH3OH, 0.1% TFA-100% CH3OH, 0.1% TFA. The run time was about 8 minutes at a flow rate of about 300 μL/minutes.
The Area Under the Curve (AUC) was calculated using the linear trapezoidal rule from t=0 to the last sampling time tx (see Handbook of Basic Pharmacokinetics, Wolfgang A. Ritschel and Gregory L. Kearns, 5th ed, 1999). AUC^0→tx=S((Cn+Cn+1)/2))·(tn+1−tn)[(μg/mL)h]

[2] = target: T1, α4β1 integrin (Homo sapiens, UniProt P05556+P13612); assay: α4β1 Integrin Adhesion Assay: Jurkat Cell Adhesion to Human Plasma Fibronectin; assay type: cell-based; settings: Jurkat cells
T1 construct: Jurkat™ cells (maintained in log phase growth) were labeled with Calcein AM; endogenous in cells; host or cells: Jurkat cells
T1 sequence (P13612 34-1032): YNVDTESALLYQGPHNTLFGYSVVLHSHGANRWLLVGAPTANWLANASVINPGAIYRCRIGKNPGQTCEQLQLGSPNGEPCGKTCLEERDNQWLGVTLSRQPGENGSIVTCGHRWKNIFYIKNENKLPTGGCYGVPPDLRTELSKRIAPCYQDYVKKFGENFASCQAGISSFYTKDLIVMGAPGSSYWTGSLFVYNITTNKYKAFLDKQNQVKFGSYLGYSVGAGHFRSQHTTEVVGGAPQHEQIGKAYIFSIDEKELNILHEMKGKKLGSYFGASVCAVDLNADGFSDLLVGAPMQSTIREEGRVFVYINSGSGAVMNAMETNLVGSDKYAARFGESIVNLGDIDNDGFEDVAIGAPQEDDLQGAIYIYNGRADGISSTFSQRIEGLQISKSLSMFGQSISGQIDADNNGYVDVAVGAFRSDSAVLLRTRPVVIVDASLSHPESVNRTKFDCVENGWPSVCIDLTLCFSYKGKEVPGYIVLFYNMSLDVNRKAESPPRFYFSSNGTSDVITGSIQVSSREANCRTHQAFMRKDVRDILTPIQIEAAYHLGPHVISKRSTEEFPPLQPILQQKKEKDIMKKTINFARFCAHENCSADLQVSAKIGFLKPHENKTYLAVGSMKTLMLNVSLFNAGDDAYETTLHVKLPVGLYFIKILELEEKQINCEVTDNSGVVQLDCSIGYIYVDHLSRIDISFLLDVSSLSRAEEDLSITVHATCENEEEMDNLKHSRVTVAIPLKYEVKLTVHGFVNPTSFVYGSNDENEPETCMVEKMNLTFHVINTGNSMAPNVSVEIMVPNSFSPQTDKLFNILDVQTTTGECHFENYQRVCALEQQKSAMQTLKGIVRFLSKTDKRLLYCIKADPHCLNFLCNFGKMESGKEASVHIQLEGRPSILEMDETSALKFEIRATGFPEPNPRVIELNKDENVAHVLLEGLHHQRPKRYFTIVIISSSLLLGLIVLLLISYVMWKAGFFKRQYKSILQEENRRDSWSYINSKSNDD
T1 sequence (P05556 21-798): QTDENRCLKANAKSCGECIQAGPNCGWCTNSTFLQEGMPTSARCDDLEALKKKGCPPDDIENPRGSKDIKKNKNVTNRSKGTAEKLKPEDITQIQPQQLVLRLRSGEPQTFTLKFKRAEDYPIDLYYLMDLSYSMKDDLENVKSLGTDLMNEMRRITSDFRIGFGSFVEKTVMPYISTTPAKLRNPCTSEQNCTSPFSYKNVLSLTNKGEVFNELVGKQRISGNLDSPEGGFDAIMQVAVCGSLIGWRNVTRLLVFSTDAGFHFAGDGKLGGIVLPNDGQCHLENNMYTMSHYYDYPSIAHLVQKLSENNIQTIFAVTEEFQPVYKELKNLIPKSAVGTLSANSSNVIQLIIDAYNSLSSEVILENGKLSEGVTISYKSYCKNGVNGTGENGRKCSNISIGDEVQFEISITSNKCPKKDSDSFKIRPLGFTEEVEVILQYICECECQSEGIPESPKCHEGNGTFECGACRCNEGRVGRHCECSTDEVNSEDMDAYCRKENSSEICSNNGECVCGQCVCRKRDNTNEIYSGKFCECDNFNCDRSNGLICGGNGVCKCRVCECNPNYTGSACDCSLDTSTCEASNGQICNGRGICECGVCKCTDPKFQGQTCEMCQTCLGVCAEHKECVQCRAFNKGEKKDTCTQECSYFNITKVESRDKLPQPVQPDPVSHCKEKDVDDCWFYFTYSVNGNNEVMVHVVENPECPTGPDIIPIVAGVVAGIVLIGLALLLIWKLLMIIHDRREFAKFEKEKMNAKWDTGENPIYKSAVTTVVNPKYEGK
Method: 96 well plates (Costar 3590 EIA plates) were coated with human fibronectin (Gibco/BRL, cat #33016–023) at a concentration of 10 μg/mL overnight at 4° C. The plates were then blocked with a solution of bovine serum albumin (BSA; 0.3%) in saline. Jurkat™ cells (maintained in log phase growth) were labeled with Calcein AM according to the manufacturer's instructions, and suspended at a concentration of 2×10^6 cells/mL in Hepes/Saline/BSA. The cells were then exposed to test and control compounds for 30 minutes at room temperature before transfer to individual wells of the fibronectin coated plate. Adhesion was allowed to occur for 35 minutes at 37° C. The wells were then washed by gentle aspiration and pipetting with fresh saline. Fluorescence associated with the remaining adherent cells was quantified using a fluorescence plate reader at EX 485/EM 530.
Cell cultures were prepared by first splitting the stationary phase Jurkat™ cells at 1:10 on day one, and 1:2 on day two to perform assay on day 3. The cells split 1:10 on day one were split 1:4 on day 3 for a day 4 assay.
The assay plates were prepared by first making a working solution of Gibco/BRL Human Fibronectin (cat #33016-023) in PBS++, at 10 μg/mL. A Costar 3590 EIA plate was then coated with 50 μL/well for 2 hours at room temperature (thought it can also be left overnight at 4° C.). Finally the plate was asperated and blocked with Hepes/Saline Buffer, 100 μL/well, for 1 hour at RT followed by washing 3× with 150 μL of PBS++.
Compound dilutions were accomplished by preparing 1:3 serial dilutions of compounds as follows. For each plate (4 compounds/plate) 600 μL were added to 4 Bio-Rad Titertubes in a Titertube rack. […] Using Falcon Flexiplates, 100 μL of Hepes/Saline buffer or human serum were added to rows B through G. A multi-channel pipetter set to 180 μL was used to with four tips spaced evenly the pipetter. Each set of four tubes was mixed 5 times and 180 μL of 2× compound was transferred to the first column of each compound dilution in Row B, leaving Row A empty. 180 μL were added to the other wells in Row A. Serial dilutions were performed down the plate by transferring 50 μL to the next dilution and mixing 5 times, changing tips each time after mixing.
A 20 μg/mL solution in Hepes/Saline buffer or human serum, of 21/6 antibody was the positive control and was set aside in a reagent trough to add to cell suspension plate.
The cell staining was accomplished by first harvesting the log-phase Jurkat™ cells by centrifugation in 50 mL tubes (1100 rpm for 5 minutes). The cells were resuspended in 50 mL PBS++, spun, and resuspend in 20 mL PBS++. The cells were stained by adding 20 μL of Calcein AM for 30 minutes RT. The volume was brought to 50 mL with Hepes/Saline buffer and the cells were counted, spun, and resuspend to 2×10^6 cells/mL in Hepes/Saline buffer or human serum.
The compounds were incubated using the following procedure. In a new flexiplate, 65 μL of stained cells were added to Rows B through H. Then 65 μL of 2× compounds were added to the appropriate rows following the plate setup and mixed three times. 65 μL of 2×-21/6 antibody were added to Row H and mixed 3×. Finally the plate was incubated at room temperature for 30 minutes.
Fibronectin adhesion was measured using a fluorescent plate reader at EX 485/EM 530 after the following work up procedure. After incubation, the cells were mixed three times and 100 μL were transfered to the Fibronectin coated plates and incubated at 37° C. for about 35 minutes. Each plate was washed, row by row, by gently pipetting 100 μL of RT. PBS++ down the sides of the wells and turning the plate 90 degrees to aspirate. This procedure was repeated for a total of 3 washes. Each well was filled with 100 μL after washing by pipetting down the side of the well.
An IC50 value was calculated for each compound, both in the presence of the human serum and in the absence of human serum.

Row | AUC [1] | IC50 ([2]; containing human serum) [nM] | IC50 ([2]; without the human serum) [nM] | SMILES
1 | 4.7816 (μg/mL)h | 227 | 8.71 | CCN(CC)c1ncc(N(CC)S(=O)(=O)c2ccc(F)cc2F)c(N[C@@H](Cc2ccc(OC(=O)N3CCCC3)cc2)C(=O)O)n1 [Example 12, N-(2-[N′,N′-diethylamino]-5-[N″-(2,4-difluorophenylsulfonyl)-N″-ethylamino]pyrimidin-4-yl)-4′-(pyrrolidin-1-ylcarbonyloxy)-L-phenylalanine]
2 | 1.283 (μg/mL)h | 89.5 | 2.45 | CCN(CC)c1ncc(N(C)S(=O)(=O)c2ccc(F)cc2F)c(N[C@@H](Cc2ccc(OC(=O)N3CCC3)cc2)C(=O)O)n1 [Example 13, N-(2-[N′,N′-diethylamino]-5-[N″-(2,4-difluorophenylsulfonyl)-N″-methylamino]pyrimidin-4-yl)-4′-(azetidin-1-ylcarbonyloxy)-L-phenylalanine]
3 | 0.3566 (μg/mL)h | 51.5 | 3.39 | CCN(CC)c1ncc(N(CC)S(=O)(=O)c2ccc(F)cc2F)c(N[C@@H](Cc2ccc(OC(=O)N3CCC3)cc2)C(=O)O)n1 [Example 14, N-(2-[N′,N′-diethylamino]-5-[N″-(2,4-difluorophenylsulfonyl)-N″-ethylamino]pyrimidin-4-yl)-4′-(azetidin-1-ylcarbonyloxy)-L-phenylalanine]
4 | 23.808 (μg/mL)h | 565 | 13.7 | C#CCN(c1cnc(N(CC)CC)nc1N[C@@H](Cc1ccc(OC(=O)N2CCCC2)cc1)C(=O)O)S(=O)(=O)c1ccc(F)cc1F [Example 16, N-(2-[N′,N′-diethylamino]-5-[N″-(2,4-difluorophenylsulfonyl)-N″-propargylamino]pyrimidin-4-yl)-4′-(pyrrolidin-1-ylcarbonyloxy)-L-phenylalanine]
5 | 0.8628 (μg/mL)h | 125 | 5.24 | C#CCN(c1cnc(N(CC)CC)nc1N[C@@H](Cc1ccc(OC(=O)N2CCC2)cc1)C(=O)O)S(=O)(=O)c1ccc(F)cc1F [Example 17, N-(2-[N′,N′-diethylamino]-5-[N″-(2,4-difluorophenylsulfonyl)-N″-propargylamino]pyrimidin-4-yl)-4′-(azetidin-1-ylcarbonyloxy)-L-phenylalanine]
6 | 4.7528 (μg/mL)h | 480 | 5.86 | C#CCN(c1cnc(N(CC)CC)nc1N[C@@H](Cc1ccc(OC(=O)N2CCC2)cc1)C(=O)O)S(=O)(=O)c1ccc(F)cc1 [Example 18, N-(2-[N′,N′-diethylamino]-5-[N″-(4-fluorophenylsulfonyl)-N″-propargylamino]pyrimidin-4-yl)-4′-(azetidin-1-ylcarbonyloxy)-L-phenylalanine]

Second part, the molecule before the results:

Row | SMILES | AUC [1] | IC50 ([2]; containing human serum) [nM] | IC50 ([2]; without the human serum) [nM]
7 | CCN(CC)c1ncc(N(C)S(=O)(=O)c2ccc(F)cc2)c(N[C@@H](Cc2ccc(OC(=O)N3CCC3)cc2)C(=O)O)n1 [Example 8, N-(2-[N′,N′-diethylamino]-5-[N″-(4-fluorophenylsulfonyl)-N″-methylamino]pyrimidin-4-yl)-4′-(azetidin-1-ylcarbonyloxy)-L-phenylalanine] | 2.4082 (μg/mL)h | 225 | 1.66
8 | CCN(CC)c1ncc(N(C)S(=O)(=O)c2ccc(Cl)cc2)c(N[C@@H](Cc2ccc(OC(=O)N3CCC3)cc2)C(=O)O)n1 [Example 9] | 2.0774 (μg/mL)h | 207 | 3.24
9 | CCN(CC)c1ncc(N(CC)S(=O)(=O)c2ccc(Cl)cc2)c(N[C@@H](Cc2ccc(OC(=O)N3CCC3)cc2)C(=O)O)n1 [Example 10, N-(2-[N′,N′-diethylamino]-5-[N″-(4-chlorophenylsulfonyl]-N″-ethylamino]pyrimidin-4-yl)-4′-(azetidin-1-ylcarbonyloxy)-L-phenylalanine] | 2.1113 (μg/mL)h | 82.9 | 4.06
10 | CCN(CC)c1ncc(N(C)S(=O)(=O)c2ccc(F)cc2F)c(N[C@@H](Cc2ccc(OC(=O)N3CCCC3)cc2)C(=O)O)n1 [Example 11, N-(2-[N′,N′-diethylamino]-5-[N″-(2,4-difluorophenylsulfonyl)-N″-methylamino]pyrimidin-4-yl)-4′-(pyrrolidin-1-ylcarbonyloxy)-L-phenylalanine] | 14.818 (μg/mL)h | 483 | 8.37
